Literature values, collected in US10881750B2, “Sentinel lymph node marker capable of multi-mode imaging” (NATIONAL CANCER CENTER, priority 2010, dated 2021).

Details: 18 breast cancer patients, clinical trials (Kitai et al., Breast Cancer 2005)

CC1(C)C(/C=C/C=C/C=C/C=C2\N(CCCCS(=O)(=O)O)c3ccc4ccccc4c3C2(C)C)=[N+](CCCCS(=O)(=O)[O-])c2ccc3ccccc3c21 [indocyanine green]
safety in clinical use: safe to use
